Experimental data: ChEMBL document CHEMBL3301472, “MMV Malaria Box HIV and cytotoxicity screening”

Columns and labels:
[1] = system: Human immunodeficiency virus 1; test: MMV: HIV CXCR4-tropic env NL4-3 pseudovirus assay produces luciferase signal in lieu of replicating viral particles Day 3 pi, U87-CD4-CXCR4, % inhibition at 5 mM compound; type: functional; parameters: dose or concentration left out as unconfirmed; conditions: Human immunodeficiency virus 1, NL4-3, U87.CD4.CXCR4, 72 h
[2] = MMV: MTT Cytotoxicity Assay Day 3 pi, U87-CD4-CCR5 cells, % cell death @ 5mM compound; type: toxicity, cell-based; conditions: human, u87-cd4-ccr5, 5000 µM
[3] = MMV: MTT Cytotoxicity Assay Day 3 pi, U87-CD4-CXCR4 cells, % cell death @ 5mM compound; type: toxicity, cell-based; conditions: human, u87-cd4-cxcr4, 5000 µM
[4] = MMV: MTT Cytotoxicity Assay Day 7 pi of Assay #6 (compound washed out Day 1 pi), U87-CD4-CCR5 cells, % cell death @ 5mM compound; type: toxicity, cell-based; conditions: human, u87-cd4-ccr5, 5000 µM
[5] = MMV: MTT Cytotoxicity Assay Day 7 pi of Assay #7 (compound washed out Day 1 pi), U87-CD4-CXCR4 cells, % cell death @ 5mM compound; type: toxicity, cell-based; conditions: human, u87-cd4-cxcr4, 5000 µM
[6] = MMV: MTT Cytotoxicity Assay Day 7 pi of Assay #10 (NO washout), U87-CD4-CCR5 cells, % cell death @ 5mM compound; type: toxicity, cell-based; conditions: human, u87-cd4-ccr5, 5000 µM
[7] = MMV: MTT Cytotoxicity Assay Day 7 pi of Assay #11 (NO washout), U87-CD4-CXCR4 cells, % cell death @ 5mM compound; type: toxicity, cell-based; conditions: human, u87-cd4-cxcr4, 5000 µM
[8] = system: Human immunodeficiency virus 1; test: MMV: HIV JRFL CCR5-tropic replication-competent virus, virus & compound washed out Day 1 pi, P24 ELISA Day 7 pi, U87-CD4-CCR5, % inhibition at 5 mM compound; type: functional; parameters: dose or concentration left out as unconfirmed; conditions: Human immunodeficiency virus 1, JR-FL

## CCN(CC)CCCNc1ccnc2cc3ccccc3cc12
[1]
  inhibition: 5%
[2]
  % Cell Death: 41
[3]
  % Cell Death: 35
[4]
  % Cell Death: 51
[5]
  % Cell Death: 55
[6]
  % Cell Death: 60
[7]
  % Cell Death: 85

## Br.CCn1c2c(c(=N)c3c1CCC3)CCCC2
[1]
  inhibition: -2%
[2]
  % Cell Death: -56
[3]
  % Cell Death: 30
[4]
  % Cell Death: -8
[5]
  % Cell Death: -30
[6]
  % Cell Death: -14
[7]
  % Cell Death: -11

## CCN(CC)c1cc(C)c2cc(NC(=O)c3cccc(OC)c3)ccc2n1
[1]
  inhibition: 7%
[2]
  % Cell Death: -1
[3]
  % Cell Death: 5
[4]
  % Cell Death: 3
[5]
  % Cell Death: -25
[6]
  % Cell Death: 39
[7]
  % Cell Death: -2

## Cn1c(C(=O)c2cccc3ccccc23)nc2ccccc21
[1]
  inhibition: 9%
[2]
  % Cell Death: -32
[3]
  % Cell Death: 32
[4]
  % Cell Death: -37
[5]
  % Cell Death: -12
[6]
  % Cell Death: 2
[7]
  % Cell Death: -77

## N=c1n(CCN2CCCCC2)c2ccccc2n1CC(=O)c1ccc(Cl)c(Cl)c1
[1]
  inhibition: 0%
[2]
  % Cell Death: -21
[3]
  % Cell Death: 9
[4]
  % Cell Death: -5
[5]
  % Cell Death: 4
[6]
  % Cell Death: -3
[7]
  % Cell Death: -14

## CCOc1cc2c(cc1OCC)C(c1cc(OC)c(O)cc1Cl)NCC2 (stereo not given)
[1]
  inhibition: 10%
[2]
  % Cell Death: 31
[3]
  % Cell Death: 1
[4]
  % Cell Death: 7
[5]
  % Cell Death: -19
[6]
  % Cell Death: 25
[7]
  % Cell Death: 20

## O=C(Nc1ccc(Br)cc1)Nc1cccc(Cl)c1
[1]
  inhibition: 9%
[2]
  % Cell Death: 9
[3]
  % Cell Death: 22
[4]
  % Cell Death: 8
[5]
  % Cell Death: -4
[6]
  % Cell Death: 44
[7]
  % Cell Death: 64

## CSc1ccccc1C(=O)Nc1nc(-c2ccccn2)cs1
[1]
  inhibition: 4%
[2]
  % Cell Death: 28
[3]
  % Cell Death: 86
[4]
  % Cell Death: 18
[5]
  % Cell Death: 28
[6]
  % Cell Death: 3
[7]
  % Cell Death: 2

## COc1cccc(NC(=O)[C@H](C(C)C)n2c(=O)[nH]c3ccccc3c2=O)c1
[1]
  inhibition: 0%
[2]
  % Cell Death: 24
[3]
  % Cell Death: 20
[4]
  % Cell Death: 24
[5]
  % Cell Death: 5
[6]
  % Cell Death: 27
[7]
  % Cell Death: 7

## COc1ccc(C(C)=O)cc1N1C(=O)C2C(C1=O)C1(c3ccccc3)C(=O)C2(c2ccccc2)C(c2ccc(C)cc2)=C1c1ccc(C)cc1 (stereo not given)
[1]
  inhibition: 3%
[2]
  % Cell Death: 28
[3]
  % Cell Death: 39
[4]
  % Cell Death: 2
[5]
  % Cell Death: 14
[6]
  % Cell Death: 16
[7]
  % Cell Death: 5

## CN(C)CCNc1cc(-c2ccccc2)nc2ccccc12
[1]
  inhibition: 5%
[2]
  % Cell Death: 26
[3]
  % Cell Death: 18
[4]
  % Cell Death: 6
[5]
  % Cell Death: -12
[6]
  % Cell Death: 71
[7]
  % Cell Death: 85

## Cc1ccnc(NC(c2cccc(OCc3ccccc3)c2)c2ccc3cccnc3c2O)c1 (stereo not given)
[1]
  inhibition: 1%
[2]
  % Cell Death: 19
[3]
  % Cell Death: -12
[4]
  % Cell Death: 49
[5]
  % Cell Death: 37
[6]
  % Cell Death: -16
[7]
  % Cell Death: 27

## COc1ccc(Nc2nc(N/N=C/c3ccc(O)cc3)nc(Nc3ccc([N+](=O)[O-])cc3)n2)cc1
[1]
  inhibition: 7%
[2]
  % Cell Death: 11
[3]
  % Cell Death: 23
[4]
  % Cell Death: 33
[5]
  % Cell Death: 50
[6]
  % Cell Death: 11
[7]
  % Cell Death: 0

## CC(NCc1ccccc1)c1cc(Cl)ccc1O (stereo not given)
[1]
  inhibition: 6%
[2]
  % Cell Death: 1
[3]
  % Cell Death: 6
[4]
  % Cell Death: -2
[5]
  % Cell Death: -15
[6]
  % Cell Death: 26
[7]
  % Cell Death: -3

## COc1ccc2nc(C)cc(Nc3cccc(O)c3)c2c1.Cl
[1]
  inhibition: 7%
[2]
  % Cell Death: 16
[3]
  % Cell Death: 39
[4]
  % Cell Death: 10
[5]
  % Cell Death: 0
[6]
  % Cell Death: 43
[7]
  % Cell Death: 76

## CCCCCC(=O)N1c2ccccc2N=C2CC(c3ccc(OC)c(OC)c3)CC(O)=C2C1c1ccc(C(F)(F)F)cc1 (stereo not given)
[1]
  inhibition: 2%
[2]
  % Cell Death: 11
[3]
  % Cell Death: 14
[4]
  % Cell Death: 5
[5]
  % Cell Death: -21
[6]
  % Cell Death: 16
[7]
  % Cell Death: -20

## COc1cccc(NC(=O)Cn2c(C)c(C#N)c3ccccc32)c1
[1]
  inhibition: 8%
[2]
  % Cell Death: 23
[3]
  % Cell Death: 47
[4]
  % Cell Death: 29
[5]
  % Cell Death: -5
[6]
  % Cell Death: 12
[7]
  % Cell Death: -1

## Oc1ccc(-c2nc(-c3ccc4oc5ccc(-c6[nH]c(-c7ccc(O)cc7)nc6-c6ccccc6)cc5c4c3)c(-c3ccccc3)[nH]2)cc1
[1]
  inhibition: 1%
[2]
  % Cell Death: -2
[3]
  % Cell Death: 46
[4]
  % Cell Death: -12
[5]
  % Cell Death: 17
[6]
  % Cell Death: 56
[7]
  % Cell Death: 89

## FC(F)(F)c1cccc(Nc2nc(-c3ccccc3)nc3ncccc23)c1
[1]
  inhibition: 9%
[2]
  % Cell Death: 1
[3]
  % Cell Death: -16
[4]
  % Cell Death: 0
[5]
  % Cell Death: 15
[6]
  % Cell Death: 19
[7]
  % Cell Death: -17

## COc1ccc(CN2CCN(Cc3ccccc3)CC2)c(O)c1
[1]
  inhibition: -2%
[2]
  % Cell Death: 16
[3]
  % Cell Death: -16
[4]
  % Cell Death: -1
[5]
  % Cell Death: 53
[6]
  % Cell Death: 4
[7]
  % Cell Death: 10

## Cc1cc(C)cc(Nc2cc(C)nc3nc(C(F)(F)F)nn23)c1
[1]
  inhibition: 7%
[2]
  % Cell Death: 10
[3]
  % Cell Death: 26
[4]
  % Cell Death: 29
[5]
  % Cell Death: -6
[6]
  % Cell Death: -23
[7]
  % Cell Death: -5

## c1ccc2c(NCCc3c[nH]c4ccccc34)c3ccccc3nc2c1
[2]
  % Cell Death: 64
[3]
  % Cell Death: 62
[8]
  inhibition: 5%
[4]
  % Cell Death: 29
[5]
  % Cell Death: -4
[6]
  % Cell Death: 20
[7]
  % Cell Death: 42

## CN(C)c1ccc(-c2nc3cc(N)ccc3[nH]2)cc1
[2]
  % Cell Death: 22
[3]
  % Cell Death: 19
[8]
  inhibition: 0%
[4]
  % Cell Death: -1
[5]
  % Cell Death: -21
[6]
  % Cell Death: 2
[7]
  % Cell Death: -20

## Clc1ccc2c(N3CCCC3)ccnc2c1
[2]
  % Cell Death: 8
[3]
  % Cell Death: 21
[8]
  inhibition: 5%
[4]
  % Cell Death: 3
[5]
  % Cell Death: 1
[6]
  % Cell Death: 16
[7]
  % Cell Death: -37

## CCOC(=O)C1=C(C)N=c2sc(=Cc3cc(Cl)ccc3O)c(=O)n2C1c1ccc(OC)cc1 (stereo not given)
[2]
  % Cell Death: -27
[3]
  % Cell Death: 15
[8]
  inhibition: 1%
[4]
  % Cell Death: 10
[5]
  % Cell Death: -6
[6]
  % Cell Death: 11
[7]
  % Cell Death: -46
